The experiment addresses T1, Human MTHFD2 (Homo sapiens, UniProt P13995).
T1 construct: residues 36-350 in Uniport ID P13995; His6 (N); made in house; host or cells: E. coli
T1 sequence (P13995 36-350): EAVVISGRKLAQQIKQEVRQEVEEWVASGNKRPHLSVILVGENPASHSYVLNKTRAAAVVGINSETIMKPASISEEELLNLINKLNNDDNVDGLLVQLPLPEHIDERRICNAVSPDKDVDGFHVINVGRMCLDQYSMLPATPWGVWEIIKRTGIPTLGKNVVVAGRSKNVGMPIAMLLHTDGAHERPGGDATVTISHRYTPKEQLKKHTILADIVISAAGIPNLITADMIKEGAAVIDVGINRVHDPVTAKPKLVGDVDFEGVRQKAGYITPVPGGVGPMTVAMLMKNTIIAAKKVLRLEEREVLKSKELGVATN
In words: MTHFD2 Activity Assay (dehydrogenase activity, diaphorase/resazurin coupled fluorescence). It counts as biochemical. To be noted: inhibitory activity (IC50 and/or binding constant); 0.2 nM MTHFD2, 11 concentrations. In outline: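 Steps: compound + 0.2 nM enzyme, 15 min, pH 8.0 Hepes buffer; add 70 μM CH2-THF, 1 mM NAD+, 100 μM resazurin, diaphorase; 30 min; quench with EDTA; read fluorescence. Data normalized to DMSO (100%) and no-enzyme (0%) wells.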
On the technique in general: The colour change of resazurin is a common sign of viable cells or microbes.
As a reminder, the IC50 is the concentration that inhibits the measured activity by half. Higher therefore signals a need for much substance. `Cn1c(Nc2cccnc2)nc2c1c(=O)n(Cc1cc3c(Cl)cccc3[nH]1)c(=O)n2C` [Example 343, 1-((4-chloro-1H-indol-2-yl)methyl)-3,7-dimethyl-8-(pyridin-3-ylamino)-1H-purine-2,6(3H,7H)-dione] registered an IC50 of 10 to 1000 nM.
Take `Cn1c(N[C@H]2CCC[C@H](O)C2)nc2c1c(=O)n(Cc1ccc(Cl)c(Cl)c1)c(=O)n2C` (single isomer, unassigned) [Example 81, 1-(3,4-dichlorobenzyl)-8-((1S,3S)-3-hydroxycyclohexylamino)-3,7-dimethyl-1H-purine-2,6(3H,7H)-dione or 1-(3,4-dichlorobenzyl)-8-((1R,3R)-3-hydroxycyclohexylamino)-3,7-dimethyl-1H-purine-2,6(3H,7H)-dione]: the concentration for half-maximal inhibition (IC50) was 10 to 1000 nM.
The result for `Cn1c(C2CCNC2)nc2c1c(=O)n(Cc1cc3c(Cl)cccc3[nH]1)c(=O)n2C` (stereo not shown) [Example 425, 1-[(4-chloro-1H-indol-2-yl)methyl]-3,7-dimethyl-8-pyrrolidin-3-yl-purine-2,6-dione] reads 10 to 1000 nM; that for `COc1ccc2[nH]c(Cn3c(=O)c4c(ncn4C)n(C)c3=O)cc2c1` [Example 239, 1-((5-methoxy-1H-indol-2-yl)methyl)-3,7-dimethyl-1H-purine-2,6(3H,7H)-dione], 1000 to 5000 nM.

For the origin of these results see patent US12187728B2 (Raze Therapeutics, Inc., priority 2015, dated 2025).
